Reference: article PMC7395068, “The evolution of strategies to minimise the risk of human drug-induced liver injury (DILI) in drug discovery and development” (Archives of Toxicology, 2020)
Like-named read-outs stand apart in the source and are kept apart here.

Legend:
[1] = tested on: THLE or HepG2 cells, isolated mitochondria, BSEP; settings: cited from earlier work
[2] = tested on: HepG2 cells, primary human hepatocytes; settings: In vitro Assay; ref Garside 2014; cited from earlier work
[3] = Plasma free fraction (fu) and unbound Cmax (Cmax,u); type: in vitro ADME, human; settings: unbound plasma Cmax
Method: The prediction of DILI severity was evaluated further using the 3D combined HCI assays using plasma-free fraction. The majority of fu values were obtained from literature, when unavailable in-house prediction was utilised. Unbound plasma Cmax concentrations (Cmax,u) were derived by multiplying total plasma Cmax with the corresponding free fraction (fu) for each compound.

[4] = cited from earlier work
hLiMTs [5] = settings: cited from earlier work
Upcyte human hepatocytes = settings: In vitro Assay; ref Tolosa 2019; cited from earlier work
HepG2 cells [6] = settings: cited from earlier work
PHH spheroids = settings: cited from earlier work
[7] = read-out: Human plasma Cmax; total plasma Cmax.tot, median of 9 literature references; cited from earlier work
[8] = cited from earlier work; remark: listed apart in the source
HepG2 cells [9] = settings: cited from earlier work; remark: listed apart in the source
rBsep = settings: In vitro Assay; ref Dawson 2012; cited from earlier work
hLiMTs [10] = assay: Combined HCI (HCS) and cellular ATP 3D assay in hLiMTs; settings: for AC50 / minimal effective concentration: Homo sapiens
PHH = settings: cited from earlier work
human hepatocytes = settings: cited from earlier work
[11] = ref Chen 2011; cited from earlier work
[12] = plasma free fraction; cited from earlier work
HepaRG spheroids = assay: Combined HCI (HCS) and cellular ATP 3D assay in HepaRG spheroids; settings: for AC50 / minimal effective concentration: Homo sapiens
[13] = tested on: THLE-Null and THLE-3A4 cells; settings: In vitro Assay; ref Gustafsson 2014; cited from earlier work
[14] = Modeled in vitro assays (cytotoxicity, mitochondrial dysfunction, BSEP), ref Aleo et al. 2019
[15] = In vitro Assay, ref Proctor 2017
[16] = Microtissue model structural based (HCI), combined HCS and ATP, MEC < 25 × Cmax.tot cut-off

## Cn1cnc([N+](=O)[O-])c1Sc1ncnc2nc[nH]c12 [azathioprine]
[1]; In vitro Assay, ref Aleo 2019
  Partition Hybrid HRM Score: -VE
  Ro2 Hybrid HRM Score: +VE
[1]; [14]
  Partition Hybrid HRM Score ≥4, Aleo (2019): -VE
  Partition Hybrid HRM Score ≥8, Aleo (2019): -VE
  Rule of Two hybrid HRM Score ≥3, Aleo (2019): +VE (Rule of Two hybrid HRM Score ≥3)
  Rule of Two hybrid HRM Score ≥8, Aleo (2019): -VE
[2]
  Cluster 1-6 +VE Assay: -VE
[3]
  Human plasma Cmax,u: 5.048 µM
[4]; Chen et al. 2016 or literature alignment, ref Chen et al. 2016
  Assigned DILI category: 3
[4]; […]
  In vivo DILI: +VE
[4]; ref Aleo 2019
  In vivo DILI: +VE
[4]; ref Dawson 2012
  In vivo DILI: +VE
[4]; ref Garside 2014
  In vivo DILI: +VE
[4]; ref Gustafsson 2014
  In vivo DILI: +VE
[4]; ref O'Brien 2006
  In vivo DILI: +VE
[4]; ref Proctor 2017
  In vivo DILI: +VE
[4]; ref Tolosa 2012
  In vivo DILI: +VE
[4]; ref Tolosa 2019
  In vivo DILI: +VE
[4]; ref Vorrink 2018
  In vivo DILI: +VE
[4]; ref Xu 2008
  In vivo DILI: +VE
hLiMTs [5]; [15]
  hLiMTs ATP <100uM: +VE (IC50 threshold of 100 µM)
hLiMTs [5]; hLiMTs, ATP, IC50 < 100 × Cmax.tot, ref Proctor et al. 2017
  hLiMTs/100xCmax, Proctor (2017): +VE (IC50 < 100 × Cmax.tot)
hLiMTs [5]; hLiMTs, ATP, IC50 threshold 100 µM, ref Proctor et al. 2017
  hLiMTs/100uM, Proctor (2017): +VE (IC50 threshold of 100 µM)
Upcyte human hepatocytes
  Upcytes multi donor assay 14day data: +VE
HepG2 cells [6]; In vitro Assay, ref O'Brien 2006
  Structural based (HCI): +VE
HepG2 cells [6]; Structural based (HCI), HepG2, ref O'Brien et al. 2006
  DILI in vitro assay prediction, O'Brien (2006): +VE (lowest HCI endpoint IC50 (or in the absence of dose–response < 100 µM) < 30 × total human plasma exposure levels (Cmax.tot))
PHH spheroids; In vitro Assay, ref Vorrink 2018
  hLiMTs ATP <20 x Cmax: +VE (IC20 < 20 × Cmax.tot cut-off)
PHH spheroids; PHH spheroids, ATP, 14 days, IC20 < 20 × Cmax.tot, ref Vorrink et al. 2018
  DILI in vitro assay prediction, Vorrink (2018): +VE (IC20 < 20 × Cmax.tot cut-off)
[7]
  Cmax: 7.21 µM
[8]; LTKB DILIrank category, ref Chen et al. 2016
  DILI severity category (Chen et al. [2016]): Most
[8]; human DILI classification, LTKB DILIrank, ref Chen et al. 2016
  DILI severity category (Chen 2016): Most
[8]; human DILI severity, ref Chen et al.
  DILI severity category: Most
[8]; ref Chen 2016
  DILI +VE (5-8), DILI -VE (-4): +VE
  DILI severity category: vMost-DILI-Concern
HepG2 cells [9]; In vitro Assay, ref Tolosa 2012
  Structural based (HCI): +VE
HepG2 cells [9]; Structural based (HCI), HepG2, ref Tolosa et al. 2012
  DILI in vitro assay prediction, Tolosa (2012): +VE
rBsep
  Inhibition of rBsep cutoff<1& cmax u>.2: -VE
  Inhibition of rBsep cutoff<3: -VE
hLiMTs [10]; read-out: ATP endpoint AC50
  AC50: 1.18 µM
hLiMTs [10]; read-out: ATP endpoint MEC
  minimal effective concentration: 0.361 µM
hLiMTs [10]; read-out: HCS endpoint AC50
  AC50: 41.6 µM
hLiMTs [10]; read-out: HCS endpoint MEC
  minimal effective concentration: 1.58 µM
hLiMTs [10]; [16]
  DILI prediction hLiMTs (HCS-MEC): +VE (MEC < 25 × Cmax.tot cut-off)
hLiMTs [10]; hLiMTs, ATP endpoint, cut-off <25x Avg Cmax
  hLiMTs <25x Avg Cmax ATP: +ve
hLiMTs [10]; hLiMTs, ATP endpoint, cut-off <100x Avg Cmaxu
  hLiMTs <100x Avg Cmaxu ATP: +ve (<100x Avg Cmaxu)
hLiMTs [10]; hLiMTs, HCS endpoints, cut-off <25x Avg Cmax
  hLiMTs <25x Avg Cmax HCS: +ve
hLiMTs [10]; hLiMTs, HCS endpoints, cut-off <100x Avg Cmaxu
  hLiMTs <100x Avg Cmaxu HCS: +ve (<100x Avg Cmaxu)
hLiMTs [10]; hLiMTs, all endpoints (ATP and HCS), cut-off <25x Avg Cmax
  hLiMTs <25x Avg Cmax All: +ve
hLiMTs [10]; hLiMTs, all endpoints, Cmax max used
  hLiMTs Cmax max All: +ve
hLiMTs [10]; hLiMTs, all endpoints, Cmax min used
  hLiMTs Cmax min All: +ve
hLiMTs [10]; hLiMTs, all endpoints, cut-off <10 uM
  hLiMTs <10 uM All: +ve (<10 uM)
hLiMTs [10]; hLiMTs, all endpoints, cut-off <100x Avg Cmaxu
  hLiMTs <100x Avg Cmaxu All: +ve (<100x Avg Cmaxu)
PHH; 2D PHH, ATP, IC50 < 100 × Cmax.tot, ref Proctor et al. 2017
  PHH/100xCmax, Proctor (2017): -VE
PHH; 2D PHH, ATP, IC50 threshold 100 µM, ref Proctor et al. 2017
  PHH/100uM, Proctor (2017): -VE
PHH; [15]
  PHH ATP <100uM: -VE
Human hepatocytes; In vitro Assay, ref Xu 2008
  Structural based (HCI): +VE
Human hepatocytes; Structural based (HCI), human hepatocytes, ref Xu et al. 2008
  DILI in vitro assay prediction, Xu (2008): +VE
[11]
  DILI Score (FDA) (1-8): 3
[12]
  fu: 0.700
HepaRG spheroids; HepaRG, ATP endpoint, cut-off <25x Avg Cmax
  HepaRG <25x Avg Cmax ATP: +ve
HepaRG spheroids; HepaRG, ATP endpoint, cut-off <100x Avg Cmaxu
  HepaRG <100x Avg Cmaxu ATP: +ve (<100x Avg Cmaxu)
HepaRG spheroids; HepaRG, HCS endpoints, cut-off <25x Avg Cmax
  HepaRG <25x Avg Cmax HCS: +ve
HepaRG spheroids; HepaRG, HCS endpoints, cut-off <100x Avg Cmaxu
  HepaRG <100x Avg Cmaxu HCS: +ve (<100x Avg Cmaxu)
HepaRG spheroids; HepaRG, all endpoints (ATP and HCS), cut-off <25x Avg Cmax
  HepaRG <25x Avg Cmax All: +ve
HepaRG spheroids; HepaRG, all endpoints, Cmax max used
  HepaRG Cmax max All: +ve
HepaRG spheroids; HepaRG, all endpoints, Cmax min used
  HepaRG Cmax min All: +ve
HepaRG spheroids; HepaRG, all endpoints, cut-off <10 uM
  HepaRG <10 uM All: +ve (<10 uM)
HepaRG spheroids; HepaRG, all endpoints, cut-off <100x Avg Cmaxu
  HepaRG <100x Avg Cmaxu All: +ve (<100x Avg Cmaxu)
HepaRG spheroids; HepaRG, read-out: ATP endpoint AC50
  AC50: 0.48 µM
HepaRG spheroids; HepaRG, read-out: ATP endpoint MEC
  minimal effective concentration: 0.278 µM
HepaRG spheroids; HepaRG, read-out: HCS endpoint AC50
  AC50: 2 µM
HepaRG spheroids; HepaRG, read-out: HCS endpoint MEC
  minimal effective concentration: 0.0805 µM
HepaRG spheroids; [16]
  DILI prediction HepaRG spheroids (HCS-MEC): +VE (MEC < 25 × Cmax.tot cut-off)
[13]
  THLE-Null: -VE
  THLE-Null/3A4: -VE
